# In patent EP0147851B1, “Water soluble forms of polyene antibiotics, and process for preparing them” (priority 1983, dated 1985):
# Read-outs that look alike come from different tables or passages of the source.
# Assays:
# Weibliche CFY-Ratten = assay: Mortality after subcutaneous administration in rats; format: in vivo; conditions: subcutan, 150 mg/kg, observation one week
# Description: • a) Die Resorption von Nystatin aus per os verabreichtem Nystatin-γ-CD-Komplex Die Resorption des Wirkstoffes wurde an Mäusen, an einem durch intravenöse Applikation einer Suspension von Candida albicans hervorgerufenen Sepsismodell untersucht. Die Sepsis verursachte innerhalb von 2-3 Tagen 100 %ige Mortalität. Den Versuchstieren wurde per os gemäß Beispiel 3 hergestellte, 8 % Nystatin enthaltende Komplex verabreicht. In einem Parallelversuch wurde Nystatin intravenös appliziert. Für beide Gruppen wurde die auf die unbehandelte Kontrolle bezogene Verlängerung der Überlebensdauer ermittelt. [formula] Wenn man diejenigen in Form des Komplexes per os verabreichten Nystatindosen mit denjenigen i.v. applizierten Nystatindosen vergleicht, die eine etwa gleiche Verlängerung der Überlebensdauer bewirkten (Tabelle 9, letzte Spalte),so läßt sich errechnen, daß aus dem Komplex durchschnittlich 6,2 % des Wirkstoffes in die Blutbahn gelangten. Bei den höchsten Dosen (i.v. 1,56 mg/kg, p.o. 25 mg/kg) ist das Zurückfallen der Überlebensdauer bereits auf die schwache Toxizität des Nystatins zurückzuführen. • b) Die Resorption von Nystatin aus subcutan appliziertem Nystatin-γ-CD-Komplex Weibliche CFY-Ratten eines durchschnittlichen Gewichtes von 180 g wurden mit Nystatin, mit Nystatin-γ-CD-Komplex (Wirkstoffgehalt9 8 %) beziehungsweise mit γ-CD behandelt. […]
# [1] = test system: aus menschlichem Blut hergestellten Suspensionen roter Blutkörperchen
# Description: Dyn. 6, 408-414 [1983]) untersucht. Die Ergebnisse werden in Form der zu 50 %iger Hämolyse gehörenden Konzentrationen (EH₅₀) angegeben. […] Auch die hämolytische Wirkung einer der im Komplex gebundenen γ-CD-Menge entsprechenden Menge γ-Cyclodextrin wurde untersucht.
# [2] = Dissolution of Nystatin complex and Nystatin base material in water at 37 °C; format: physicochemical; conditions: destilliertes Wasser, after the first 5 Minuten
# Procedure: Der auf die beschriebene Weise hergestellte Komplex zeigte bei den thermoanalytischen Untersuchungen im Vergleich zum Gemisch die gleichen Abweichungen wie der gemäß Beispiel 3 durch Lyophilisieren hergestellte Komplex. Die Löslichkeit von einer der Wirkstoffmenge von 10 mg/ml entsprechenden Menge Nystatin-γ-CD-Komplex und von Nystatingrundmaterial wurde in 15 ml destilliertem Wasser bei 37 °C untersucht. Die Lösungen wurden mit dem Magnetrührer bei einer Drehzahl von 150 min⁻¹ gerührt. Zu unterschiedlichen Zeitpunkten wurden Proben genommen, filtriert und spektrophotometrisch auf ihren Wirkstoffgehalt untersucht. Die Ergebnisse sind in der Tabelle 6 zusammengestellt.
# Das Spektrum der von der wäßrigen Suspension des Nystatingrundmaterials genommenen Proben war nicht auswertbar. […] Zuerst deformierte sich das Maximum um 290 nm und verschwand dann ganz, und im Bereich geringerer Wellenlänge zeigten sich neue Maxima, was auf Schädigung des konjugierten Chromophorsystems schließen läßt.
# [3] = cited from earlier work
# [4] = test system: aus menschlichem Blut hergestellten Suspensionen roter Blutkörperchen; conditions: literature value; cited from earlier work
structure (smiles),measurement,setting,value
C[C@@H]1[C@H](O)[C@@H](C)/C=C/C=C/CC/C=C/C=C/C=C/C=C/C(O[C@H]2O[C@H](C)[C@@H](O)[C@H](N)[C@@H]2O)CC2O[C@](O)(CC(O)C(O)CCC(O)CC(O)CC(O)CC(=O)O[C@H]1C)CC(O)C2C(=O)O (some centres unmarked) [Nystatin],Mortalität (animals that died),Weibliche CFY-Ratten,kein einziges
same,Hämolyse,[1]; 70 µg/ml Nystatin,70%
same,EH₅₀ (concentration for 50 % haemolysis),[1]; complexes berechnet als Wirkstoff,57 µg/mL
same,Zersetzung in aqueous suspension (UV spectrum),[2],fortschreitende Zersetzung
same,Löslichkeit,[3]; 70 %iges wäßriges Isopropanol,"2,2 mg/ml"
same,Löslichkeit,[3]; 75 %-iges wäßriges Äthanol,4 mg/mL
same,maximale Löslichkeit,[3]; Methanol,"9,2-11,2 mg/ml"
same,Löslichkeit,[3]; reines Isopropanol,"0,62 mg/ml"
same,Löslichkeit,[3]; reines Äthanol,"0,55 mg/ml"
same,"Löslichkeit, increase",[3]; zusammen mit Polyvinylpyrrolidon ausgefällt (coprecipitate),8-10 mal
same,EH₅₀ (concentration for 50 % haemolysis),[4],50 µg/mL
